# Test results published in patent US20120052122A1, “Treatment Of Chronic Obstructive Pulmonary Disease With Phosphodiesterase-4 Inhibitor” (Nycomed GmbH, priority 2010, published 2012).
# Several values for one entry are separate records, joined by “and”; a condition that tells them apart may be missing. Identical values can stand only once. Like-named read-outs stand apart in the source and are kept apart here.
# Experiments:
# [1] = human, in vivo
# [2] = system: patients with COPD and chronic cough and sputum production; assay: M2-125 study: 52-week placebo-controlled trial of oral roflumilast 500 μg once a day
# [3] = system: rabbits; assay: Embryo-fetal development studies in rabbits; type: in vivo, rabbit; conditions: up to 0.8 mg/kg/day
# [4] = system: COPD patients; assay: Adverse events in 14 double-blind, placebo-controlled Phase II/III studies; type: in vivo, human; conditions: 14 Phase II/III studies, N = 6563
# From the text: The population was 25 to 93 years old (median age 64), 72% were male, and 89% were white.
# [5] = system: patients with COPD and chronic cough and sputum production
# [6] = Human spermatogenesis study; conditions: 500 mcg; 3-month treatment and 3-month off-treatment period
# [7] = clinical; conditions: human, in vivo
# [8] = Pharmacokinetics in special populations (total PDE4 inhibitory activity); conditions: in vivo
# [9] = system: mouse; assay: Labor and delivery in the mouse; type: in vivo
# From the text: Roflumilast should not be used during labor and delivery.
# [10] = Non-clinical safety pharmacology and toxicity studies
# From the text: Non-clinical data reveal no special hazard for humans based on conventional studies of safety pharmacology and repeated dose toxicity. Furthermore, there is no evidence of immunotoxic, skin sensitizing or phototoxic potential.
# [11] = system: hamster; assay: Two year hamster carcinogenicity studies; type: in vivo
# Method: (§1) No other treatment-related neoplastic findings were observed. Overall, the tumor-free level in the animals was 4 mg/kg/day.
# [12] = system: cytokines and reactive oxygen species from cells and lung tissue; assay: Release of inflammatory mediators in experimental animals; conditions: cells and lung tissue in vitro and in vivo
# [13] = Phase I studies, single oral doses of 2,500 mcg and 5,000 mcg; type: in vivo, human; conditions: single oral doses of 2,500 mcg and one single dose of 5,000 mcg
# [14] = system: CYP 1A2, 2A6, 2B6, 2C8, 2C9, 2C19, 2D6, 2E1, 3A4/5, or 4A9/11
# [15] = system: patients with COPD and chronic cough and sputum production; conditions: in vivo
# [16] = system: B6C3F1 mice; assay: Two year carcinogenicity study in B6C3F1 mice; type: in vivo, mouse; conditions: gavage up to 12 mg/kg/day (males), 18 mg/kg/day (females), two years
# Method: as §1
smiles,measurement,setting,value
"O=C(Nc1c(Cl)cncc1Cl)c1ccc(OC(F)F)c(OCC2CC2)c1 [Roflumilast, N-(3,5-dichloropyridin-4-yl)-3-cyclopropylmethoxy-4-difluoromethoxy-benzamide]",Absorption or pharmacokinetics on co-administration with an antacid,[1],did not alter
same,"Increase in the total PDE4 inhibition with strong CYP 1A2 inhibitors, such as fluvoxamine",[1],20-60%
same,"Interactions with inhaled salbutamol, formoterol, budesonide, oral theophylline, montelukast, digoxin, warfarin, sildenafil, midazolam and an oral contraceptive",[1],No clinically relevant interactions
same,Reduction in total PDE4 inhibitory activity with rifampicin,[1],about 60%
same,Total PDE4 inhibitory activity with CYP 3A4 inhibitors (erythromycin and ketoconazole),[1],did not result in increases
same,"Total PDE4 inhibitory activity with fluvoxamine, enoxacin and cimetidine",[1],resulted in increases
same,Change in C-reactive protein from baseline to last postrandomisation visit,[2],1.1; n = 680 mg/L
same,Median time to first exacerbation (moderate or severe) [IQR],[2],73.0 (26.0-195.0); days
same,Median time to second exacerbation (moderate or severe) [IQR],[2],188.0 (84.0-281.0) days
same,Number of patients needed to treat to prevent one moderate or severe exacerbation per year,[2],3.6 and 3.64
same,"Time to mortality (mean, SD)",[2],201.0 days
same,"Exacerbations moderate or severe, mean rate [95% CI]",[2]; 52 weeks,"1.21 (1.07-1.36); per patient, per year"
same,"Exacerbations moderate, mean rate [95% CI]",[2]; 52 weeks,"1.04 (0.92-1.18); per patient, per year"
same,"Exacerbations severe, mean rate [95% CI]",[2]; 52 weeks,"0.14 (0.10-0.20); per patient, per year"
same,"Exacerbations treated with systemic corticosteroids, antibiotics, or both, mean rate [95% CI]",[2]; 52 weeks,"1.17 (1.04-1.31); per patient, per year"
same,Change in postbronchodillator FEV1/FVC,"[2]; 52 weeks, mean",0.552%
same,Change in prebronchodillator FEV1/FVC,"[2]; 52 weeks, mean",0.200%
same,Change in postbronchodillator FEF25-75,"[2]; 52 weeks, mean (SE)",21 (5); n = 724 mL/s
same,Change in postbronchodillator FEV1,"[2]; 52 weeks, mean (SE)",44 (7); n = 724 mL
same,Change in postbronchodillator FVC,"[2]; 52 weeks, mean (SE)",58 (13); mL
same,Change in postbronchodillator PEF,"[2]; 52 weeks, mean (SE)",1.93 (1.49); L/min
same,Change in prebronchodillator FEF25-75,"[2]; 52 weeks, mean (SE)",15 (5); n = 730 mL/s
same,Change in prebronchodillator FEV1,"[2]; 52 weeks, mean (SE)",33 (7); n = 730 mL
same,Change in prebronchodillator FVC,"[2]; 52 weeks, mean (SE)",60 (14); mL
same,Change in prebronchodillator PEF,"[2]; 52 weeks, mean (SE)",0.75 (1.45); L/min
same,"Adverse event Influenza, difference",[2]; Roflumilast vs Placebo,−0.99% (−2.51 to 0.53)
same,"Adverse event Upper respiratory tract infection, difference",[2]; Roflumilast vs Placebo,−0.57% (−2.75 to 1.62)
same,"Change in C-reactive protein from baseline to last postrandomisation visit, difference",[2]; Roflumilast vs Placebo,Difference 1.1 mg/L
same,"Change in postbronchodillator FEF25-75, difference",[2]; Roflumilast vs Placebo,Difference 29 (18 mL/s
same,"Change in postbronchodillator FEV1, difference",[2]; Roflumilast vs Placebo,Difference 61 (44 mL
same,"Change in postbronchodillator FEV1/FVC, difference",[2]; Roflumilast vs Placebo,Difference 0.668%
same,"Change in postbronchodillator FVC, difference",[2]; Roflumilast vs Placebo,Difference 103 mL
same,"Change in postbronchodillator PEF, difference",[2]; Roflumilast vs Placebo,Difference 5.07 L/min
same,"Change in prebronchodillator FEF25-75, difference",[2]; Roflumilast vs Placebo,Difference 25 (13 mL/s
same,"Change in prebronchodillator FEV1, difference",[2]; Roflumilast vs Placebo,Difference 58 (41 mL
same,"Change in prebronchodillator FEV1/FVC, difference",[2]; Roflumilast vs Placebo,Difference 0.510%
same,"Change in prebronchodillator FVC, difference",[2]; Roflumilast vs Placebo,Difference 108 mL
same,"Change in prebronchodillator PEF, difference",[2]; Roflumilast vs Placebo,Difference 3.85 L/min
same,"EQ-5D total score, difference",[2]; Roflumilast vs Placebo,Difference 0.0106
same,"TDI focal score, difference",[2]; Roflumilast vs Placebo,Difference 0.3
same,"Change in prebronchodillator FVC, difference","[2]; Roflumilast vs Placebo, listed as roflumilast",108 mL
same,EQ-5D total score,[2]; mean,0.0100
same,TDI focal score,[2]; mean (SE),0.7 (0.1);
same,"Adverse event Influenza, patients",[2]; n = 778,12 (2%) number (%)
same,Teratogenicity,[3]; oral,not teratogenic
same,Post-implantive losses,[3],not seen
same,"Treatment-emergent adverse event Diarrhea, incidence",[4]; 250 mcg or 500 mcg per day,10%
same,"Treatment-emergent adverse event Abdominal pain, incidence",[4],2%
same,"Treatment-emergent adverse event Back pain, incidence",[4],3%
same,"Treatment-emergent adverse event Decreased appetite, incidence",[4],2%
same,"Treatment-emergent adverse event Dizziness, incidence",[4],2%
same,"Treatment-emergent adverse event Gastritis, incidence",[4],1%
same,"Treatment-emergent adverse event Headache, incidence",[4],4%
same,"Treatment-emergent adverse event Insomnia, incidence",[4],2%
same,"Treatment-emergent adverse event Nausea, incidence",[4],5%
same,"Treatment-emergent adverse event Tremor, incidence",[4],2%
same,"Treatment-emergent adverse event Weight decreased, incidence",[4],6%
same,Change in C-reactive protein from baseline to last postrandomisation visit,[5]; M2-124,1.0; n = 691 mg/L
same,Median time to first exacerbation (moderate or severe) [IQR],[5]; M2-124,85.0 (29.5-185.5) days
same,Median time to second exacerbation (moderate or severe) [IQR],[5]; M2-124,172.0 days
same,Number of patients needed to treat to prevent one moderate or severe exacerbation per year,[5]; M2-124,5.3 and 5.29
same,"Time to mortality (mean, SD)",[5]; M2-124,213.8 days
same,"Exacerbations moderate or severe, mean rate [95% CI]","[5]; M2-124, 52 weeks","1.08 (0.96-1.21); per patient, per year"
same,"Exacerbations moderate, mean rate [95% CI]","[5]; M2-124, 52 weeks","0.94 (0.83-1.06); per patient, per year"
same,"Exacerbations severe, mean rate [95% CI]","[5]; M2-124, 52 weeks","0.11 (0.07-0.15); per patient, per year"
same,"Exacerbations treated with systemic corticosteroids, antibiotics, or both, mean rate [95% CI]","[5]; M2-124, 52 weeks","1.10 (0.98-1.23); per patient, per year"
same,Change in postbronchodillator FEV1/FVC,"[5]; M2-124, 52 weeks, mean",0.488%
same,Change in prebronchodillator FEV1/FVC,"[5]; M2-124, 52 weeks, mean",0.314%
same,Change in postbronchodillator FEF25-75,"[5]; M2-124, 52 weeks, mean (SE)",22 (6); mL/s
same,Change in postbronchodillator FEV1,"[5]; M2-124, 52 weeks, mean (SE)",57 (9); mL
same,Change in postbronchodillator FVC,"[5]; M2-124, 52 weeks, mean (SE)",76 (15); mL
same,Change in postbronchodillator PEF,"[5]; M2-124, 52 weeks, mean (SE)",8.08 (1.50); L/min
same,Change in prebronchodillator FEF25-75,"[5]; M2-124, 52 weeks, mean (SE)",19 (5); mL/s
same,Change in prebronchodillator FEV1,"[5]; M2-124, 52 weeks, mean (SE)",46 (8); mL
same,Change in prebronchodillator FVC,"[5]; M2-124, 52 weeks, mean (SE)",68 (15); mL
same,Change in prebronchodillator PEF,"[5]; M2-124, 52 weeks, mean (SE)",6.65 (1.45); L/min
same,"Adverse event Influenza, difference","[5]; M2-124, Roflumilast vs Placebo",1.13% (−0.70 to 2.95)
same,"Change in C-reactive protein from baseline to last postrandomisation visit, difference","[5]; M2-124, Roflumilast vs Placebo",Difference 1.0 (0.8 mg/L
same,"Change in postbronchodillator FEF25-75, difference","[5]; M2-124, Roflumilast vs Placebo",Difference 11 (−5 mL/s
same,"Change in postbronchodillator FEV1, difference","[5]; M2-124, Roflumilast vs Placebo",Difference 49 (26 mL
same,"Change in postbronchodillator FEV1/FVC, difference","[5]; M2-124, Roflumilast vs Placebo",Difference 0.202 (−0.343%
same,"Change in postbronchodillator FVC, difference","[5]; M2-124, Roflumilast vs Placebo",Difference 101 (63 mL
same,"Change in postbronchodillator PEF, difference","[5]; M2-124, Roflumilast vs Placebo",Difference 4.21 L/min
same,"Change in prebronchodillator FEF25-75, difference","[5]; M2-124, Roflumilast vs Placebo",Difference 17 (3 to mL/s
same,"Change in prebronchodillator FEV1, difference","[5]; M2-124, Roflumilast vs Placebo",Difference 39 (18 mL
same,"Change in prebronchodillator FEV1/FVC, difference","[5]; M2-124, Roflumilast vs Placebo",Difference 0.312 (−0.262%
same,"Change in prebronchodillator FVC, difference","[5]; M2-124, Roflumilast vs Placebo",Difference 89 (51 mL
same,"EQ-5D total score, difference","[5]; M2-124, Roflumilast vs Placebo",Difference −0.0047
same,"TDI focal score, difference","[5]; M2-124, Roflumilast vs Placebo",Difference 0.2
same,"Change in prebronchodillator FVC, difference","[5]; M2-124, Roflumilast vs Placebo, listed as roflumilast",89 mL
same,EQ-5D total score,"[5]; M2-124, mean",0.0049
same,TDI focal score,"[5]; M2-124, mean (SE)",0.7 (0.1);
same,"Adverse event Influenza, patients","[5]; M2-124, n = 769",27 (4%) number (%)
same,"Adverse event Upper respiratory tract infection, patients","[5]; M2-124, n = 769",16 (2%) number (%)
same,"Adverse event Upper respiratory tract infection, difference","[5]; human, in vivo, 52 weeks",−0.70% (−2.38 to 0.98)
same,Semen parameters or reproductive hormones,[6],no effects
same,Cmax,[7],8.8 ng/mL
same,clearance,[7]; iv,~160 mL/min
same,half-life,[7]; po,~17 h
same,bioavailability,"[7]; po, 500 ug",~80%
same,Total PDE4 inhibitory activity in smokers,[8],slightly decreased
same,Total PDE4 inhibitory activity in the elderly,[8],increased
same,Total PDE4 inhibitory activity in women compared with men,[8],increased
same,Oral dose with signs of tocolytic activity resulting in delivery retardation and decreased postnatal survival,[9],≥ 2 mg/kg/day
same,"Immunotoxic, skin sensitizing or phototoxic potential",[10],no evidence
same,Neoplastic findings,"[11]; hamster, up to 16 mg/kg/day, two year","nasal neoplasms were caused by a drug metabolite, which is absent in humans"
same,Tumor-free level in the animals,[11]; overall,4 mg/kg/day
same,Release of inflammatory mediators (cytokines and reactive oxygen species),[12],suppressed
same,Symptoms observed at an increased rate,[13],"headache, gastrointestinal disorders, dizziness, palpitations, lightheadedness, clamminess and arterial hypotension"
same,"Inhibition of CYP 1A2, 2A6, 2B6, 2C8, 2C9, 2C19, 2D6, 2E1, 3A4/5, or 4A9/11",[14],do not inhibit
same,"Adverse event Upper respiratory tract infection, patients","[15]; human, 52 weeks",33 (4%) number (%)
same,Occurrence of rhythm disturbances vs placebo,[15],no difference
same,Tumors,[16],No compound-related tumors
